Experimental data taken from PMC8199946.

Key:
[1] = macrolactonisation by intramolecular SN2 of carboxylate on C6 sulfonate (tosylate; one brosylate, one chloride) of glucosamine derivative, K2CO3 2 equiv; details: DMF, 10.0 mM, 75.0 °C
[2] = macrolactonisation by intramolecular SN2 of carboxylate on C6 tosylate of GlcNAc derivative, K2CO3 2 equiv; details: MeCN, 6.0 mM, 75.0 °C

Structure (SMILES): CC(=O)N[C@H]1[C@H]2OCCn3cc(nn3)CCCCCCCCC(=O)OC[C@@H](O2)[C@@H](OC(=O)c2ccccc2)[C@@H]1OC(=O)c1ccccc1 [8a -> LM28, OBs]
- ring closure, isolated yield ([1]; from CC(=O)N[C@H]1[C@@H](OCCn2cc(CCCCCCCCC(=O)O)nn2)O[C@H](COS(=O)(=O)c2ccc(Br)cc2)[C@@H](OC(=O)c2ccccc2)[C@@H]1OC(=O)c1ccccc1, 20-membered ring, 5.0 h): 72%

Structure (SMILES): CC(=O)N[C@H]1[C@H]2OCCn3cc(nn3)CCCCCCCCC(=O)OC[C@@H](O2)[C@@H](OC(=O)c2ccccc2)[C@@H]1OC(=O)c1ccccc1 [8b -> LM28, Cl]
- ring closure, isolated yield ([1]; from CC(=O)N[C@H]1[C@@H](OCCn2cc(CCCCCCCCC(=O)O)nn2)O[C@H](CCl)[C@@H](OC(=O)c2ccccc2)[C@@H]1OC(=O)c1ccccc1, 20-membered ring, 5.0 h): 67%

Structure (SMILES): CC(=O)N[C@H]1[C@H]2OCCn3cc(nn3)CCCCCCCCC(=O)OC[C@@H](O2)[C@@H](OC(=O)c2ccccc2)[C@@H]1OC(=O)c1ccccc1 [8c -> 13c (LM28), OTs]
- ring closure, isolated yield ([1]; from CC(=O)N[C@H]1[C@@H](OCCn2cc(CCCCCCCCC(=O)O)nn2)O[C@H](COS(=O)(=O)c2ccc(C)cc2)[C@@H](OC(=O)c2ccccc2)[C@@H]1OC(=O)c1ccccc1, 20-membered ring, 3.0 h): 82%

Structure (SMILES): CC(=O)N[C@H]1[C@H]2OCCn3cc(nn3)CCCCCCCCC(=O)OC[C@@H](O2)[C@@H](OC(=O)c2ccccc2)[C@@H]1OC(=O)c1ccccc1 [8c -> LM28 (13c)]
- ring closure, isolated yield ([2]; from CC(=O)N[C@H]1[C@@H](OCCn2cc(CCCCCCCCC(=O)O)nn2)O[C@H](COS(=O)(=O)c2ccc(C)cc2)[C@@H](OC(=O)c2ccccc2)[C@@H]1OC(=O)c1ccccc1, 20-membered ring, 6.0 h): 77%

Structure (SMILES): CC(=O)N[C@H]1[C@H]2OCCn3cc(nn3)CCCCC(=O)OC[C@@H](O2)[C@@H](OC(=O)c2ccccc2)[C@@H]1OC(=O)c1ccccc1 [11a -> 13a (LM24)]
- ring closure, isolated yield ([1]; from CC(=O)N[C@H]1[C@@H](OCCn2cc(CCCCC(=O)O)nn2)O[C@H](COS(=O)(=O)c2ccc(C)cc2)[C@@H](OC(=O)c2ccccc2)[C@@H]1OC(=O)c1ccccc1, 16-membered ring, 2.0 h): 88%

Structure (SMILES): CC(=O)N[C@H]1[C@H]2OCCn3cc(nn3)CCCCCCC(=O)OC[C@@H](O2)[C@@H](OC(=O)c2ccccc2)[C@@H]1OC(=O)c1ccccc1 [11b -> 13b (LM26)]
- ring closure, isolated yield ([1]; from CC(=O)N[C@H]1[C@@H](OCCn2cc(CCCCCCC(=O)O)nn2)O[C@H](COS(=O)(=O)c2ccc(C)cc2)[C@@H](OC(=O)c2ccccc2)[C@@H]1OC(=O)c1ccccc1, 18-membered ring, 5.0 h): 76%

Structure (SMILES): CC(=O)N[C@H]1[C@H]2OCCCn3cc(nn3)CCCCC(=O)OC[C@@H](O2)[C@@H](OC(=O)c2ccccc2)[C@@H]1OC(=O)c1ccccc1 [12a -> 14a (LM34)]
- ring closure, isolated yield ([1]; from CC(=O)N[C@H]1[C@@H](OCCCn2cc(CCCCC(=O)O)nn2)O[C@H](COS(=O)(=O)c2ccc(C)cc2)[C@@H](OC(=O)c2ccccc2)[C@@H]1OC(=O)c1ccccc1, 17-membered ring, 2.0 h): 88%

Structure (SMILES): CC(=O)N[C@H]1[C@H]2OCCCn3cc(nn3)CCCCCCC(=O)OC[C@@H](O2)[C@@H](OC(=O)c2ccccc2)[C@@H]1OC(=O)c1ccccc1 [12b -> 14b (LM36)]
- ring closure, isolated yield ([1]; from CC(=O)N[C@H]1[C@@H](OCCCn2cc(CCCCCCC(=O)O)nn2)O[C@H](COS(=O)(=O)c2ccc(C)cc2)[C@@H](OC(=O)c2ccccc2)[C@@H]1OC(=O)c1ccccc1, 19-membered ring, 2.0 h): 83%

Structure (SMILES): CC(=O)N[C@H]1[C@H]2OCCCn3cc(nn3)CCCCCCCCC(=O)OC[C@@H](O2)[C@@H](OC(=O)c2ccccc2)[C@@H]1OC(=O)c1ccccc1 [12c -> 14c (LM38)]
- ring closure, isolated yield ([1]; from CC(=O)N[C@H]1[C@@H](OCCCn2cc(CCCCCCCCC(=O)O)nn2)O[C@H](COS(=O)(=O)c2ccc(C)cc2)[C@@H](OC(=O)c2ccccc2)[C@@H]1OC(=O)c1ccccc1, 21-membered ring, 2.0 h): 83%

Structure (SMILES): CC(=O)N[C@H]1[C@H]2OCCn3cc(nn3)CCCCc3cn(nn3)CCC(=O)OC[C@@H](O2)[C@@H](OC(=O)c2ccccc2)[C@@H]1OC(=O)c1ccccc1 [15a -> 16a (DM24)]
- ring closure, isolated yield ([2]; from CC(=O)N[C@H]1[C@@H](OCCn2cc(CCCCc3cn(CCC(=O)O)nn3)nn2)O[C@H](COS(=O)(=O)c2ccc(C)cc2)[C@@H](OC(=O)c2ccccc2)[C@@H]1OC(=O)c1ccccc1, 21-membered ring, 11.0 h): 77%
- ring closure, isolated yield ([1]; from CC(=O)N[C@H]1[C@@H](OCCn2cc(CCCCc3cn(CCC(=O)O)nn3)nn2)O[C@H](COS(=O)(=O)c2ccc(C)cc2)[C@@H](OC(=O)c2ccccc2)[C@@H]1OC(=O)c1ccccc1, 21-membered ring, 4.0 h): 90%

Structure (SMILES): CC(=O)N[C@H]1[C@H]2OCCn3cc(nn3)CCCCCc3cn(nn3)CCC(=O)OC[C@@H](O2)[C@@H](OC(=O)c2ccccc2)[C@@H]1OC(=O)c1ccccc1 [15b -> 16b (DM25)]
- ring closure, isolated yield ([2]; from CC(=O)N[C@H]1[C@@H](OCCn2cc(CCCCCc3cn(CCC(=O)O)nn3)nn2)O[C@H](COS(=O)(=O)c2ccc(C)cc2)[C@@H](OC(=O)c2ccccc2)[C@@H]1OC(=O)c1ccccc1, 22-membered ring, 14.0 h): 71%
- ring closure, isolated yield ([1]; from CC(=O)N[C@H]1[C@@H](OCCn2cc(CCCCCc3cn(CCC(=O)O)nn3)nn2)O[C@H](COS(=O)(=O)c2ccc(C)cc2)[C@@H](OC(=O)c2ccccc2)[C@@H]1OC(=O)c1ccccc1, 22-membered ring, 2.0 h): 88%

Structure (SMILES): CC(=O)N[C@H]1[C@H]2OCCCn3cc(nn3)CCCCc3cn(nn3)CCC(=O)OC[C@@H](O2)[C@@H](OC(=O)c2ccccc2)[C@@H]1OC(=O)c1ccccc1 [15c -> 16c (DM34)]
- ring closure, isolated yield ([2]; from CC(=O)N[C@H]1[C@@H](OCCCn2cc(CCCCc3cn(CCC(=O)O)nn3)nn2)O[C@H](COS(=O)(=O)c2ccc(C)cc2)[C@@H](OC(=O)c2ccccc2)[C@@H]1OC(=O)c1ccccc1, 22-membered ring, 14.0 h): 78%
- ring closure, isolated yield ([1]; from CC(=O)N[C@H]1[C@@H](OCCCn2cc(CCCCc3cn(CCC(=O)O)nn3)nn2)O[C@H](COS(=O)(=O)c2ccc(C)cc2)[C@@H](OC(=O)c2ccccc2)[C@@H]1OC(=O)c1ccccc1, 22-membered ring, 2.0 h): 85%

Structure (SMILES): CC(=O)N[C@H]1[C@H]2OCCCn3cc(nn3)CCCCCc3cn(nn3)CCC(=O)OC[C@@H](O2)[C@@H](OC(=O)c2ccccc2)[C@@H]1OC(=O)c1ccccc1 [15d -> 16d (DM35)]
- ring closure, isolated yield ([2]; from CC(=O)N[C@H]1[C@@H](OCCCn2cc(CCCCCc3cn(CCC(=O)O)nn3)nn2)O[C@H](COS(=O)(=O)c2ccc(C)cc2)[C@@H](OC(=O)c2ccccc2)[C@@H]1OC(=O)c1ccccc1, 23-membered ring, 15.0 h): 74%
- ring closure, isolated yield ([1]; from CC(=O)N[C@H]1[C@@H](OCCCn2cc(CCCCCc3cn(CCC(=O)O)nn3)nn2)O[C@H](COS(=O)(=O)c2ccc(C)cc2)[C@@H](OC(=O)c2ccccc2)[C@@H]1OC(=O)c1ccccc1, 23-membered ring, 3.0 h): 78%

Structure (SMILES): CO[C@H]1O[C@@H]2COC(=O)CCCCCCCCc3cn(nn3)CC(=O)N[C@@H]1[C@@H](OC(=O)c1ccccc1)[C@@H]2OC(=O)c1ccccc1 [21 -> 22 (C2ML)]
- ring closure, isolated yield ([1]; from CO[C@H]1O[C@H](COS(=O)(=O)c2ccc(C)cc2)[C@@H](OC(=O)c2ccccc2)[C@H](OC(=O)c2ccccc2)[C@H]1NC(=O)Cn1cc(CCCCCCCCC(=O)O)nn1, 21-membered ring, 2.0 h): 80%

Structure (SMILES): CO[C@H]1O[C@@H]2COC(=O)CCn3cc(nn3)CCCCc3cn(nn3)CC(=O)N[C@@H]1[C@@H](OC(=O)c1ccccc1)[C@@H]2OC(=O)c1ccccc1 [23 -> 24 (C2DLM)]
- ring closure, isolated yield ([1]; from CO[C@H]1O[C@H](COS(=O)(=O)c2ccc(C)cc2)[C@@H](OC(=O)c2ccccc2)[C@H](OC(=O)c2ccccc2)[C@H]1NC(=O)Cn1cc(CCCCc2cn(CCC(=O)O)nn2)nn1, 22-membered ring, 2.0 h): 77%
